# Reference: ChEMBL document CHEMBL4507286 (2021)
# Key:
# [1] = target: Phosphatidylinositol 4,5-bisphosphate 3-kinase catalytic subunit delta isoform (Homo sapiens) (UniProt O00329)
# [2] = target: Serine/threonine-protein kinase 33 (Homo sapiens) (UniProt Q9BYT3)
# [3] = target: Serine/threonine-protein kinase Nek9 (Homo sapiens) (UniProt Q8TD19)
# [4] = target: 3-phosphoinositide-dependent protein kinase 1 (Homo sapiens) (UniProt O15530)
# [5] = target: Casein kinase I isoform gamma-2 (Homo sapiens) (UniProt P78368)
# [6] = target: Dual specificity tyrosine-phosphorylation-regulated kinase 2 (Homo sapiens) (UniProt Q92630)
# [7] = target: 5-hydroxytryptamine receptor 2A (Homo sapiens) (UniProt P28223); settings: Compound concentration 10.0 uM
# [8] = target: Fibroblast growth factor receptor 2 (Homo sapiens) (UniProt P21802)
# [9] = target: Ribosomal protein S6 kinase alpha-2 (Homo sapiens) (UniProt Q15349)
# [10] = target: Phosphatidylinositol 4,5-bisphosphate 3-kinase catalytic subunit alpha isoform (Homo sapiens) (UniProt P42336)
# [11] = test system: Proto-oncogene tyrosine-protein kinase receptor Ret (Homo sapiens), P07949 [V804L]
# [12] = target: Tyrosine-protein kinase Lck (Homo sapiens) (UniProt P06239)
# [13] = test system: Phosphatidylinositol 4,5-bisphosphate 3-kinase catalytic subunit alpha isoform (Homo sapiens), P42336 [H1047Y]
# [14] = target: Muscarinic acetylcholine receptor M2 (Homo sapiens) (UniProt P08172); settings: Compound concentration 10.0 uM
# [15] = target: Tyrosine-protein kinase HCK (Homo sapiens) (UniProt P08631)
# [16] = target: Cyclin-dependent kinase 4 (Homo sapiens) (UniProt P11802)
# [17] = test system: Tyrosine-protein kinase ABL1 (Homo sapiens), P00519 [H396P]
# [18] = test system: eIF-2-alpha kinase GCN2 (Homo sapiens), Q9P2K8 [S808G]
# [19] = target: Hepatocyte growth factor receptor (Homo sapiens) (UniProt P08581)
# [20] = target: Ephrin type-B receptor 6 (Homo sapiens) (UniProt O15197)
# [21] = target: Serine/threonine-protein kinase SIK3 (Homo sapiens) (UniProt Q9Y2K2)
# [22] = target: Tyrosine-protein kinase Lyn (Homo sapiens) (UniProt P07948)
# [23] = target: Muscarinic acetylcholine receptor M4 (Homo sapiens) (UniProt P08173); settings: Compound concentration 10.0 uM
# [24] = target: Serine/threonine-protein kinase DCLK3 (Homo sapiens) (UniProt Q9C098)
# [25] = target: Tyrosine-protein kinase Fyn (Homo sapiens) (UniProt P06241)
# [26] = target: Receptor-type tyrosine-protein kinase FLT3 (Homo sapiens) (UniProt P36888)
# [27] = target: Tyrosine-protein kinase Fgr (Homo sapiens) (UniProt P09769)
# [28] = target: Mitogen-activated protein kinase kinase kinase 9 (Homo sapiens) (UniProt P80192)
# [29] = target: Dual specificity mitogen-activated protein kinase kinase 1 (Homo sapiens) (UniProt Q02750)
# [30] = target: Myosin light chain kinase family member 4 (Homo sapiens) (UniProt Q86YV6)
# [31] = target: Muscarinic acetylcholine receptor M3 (Homo sapiens) (UniProt P20309); settings: Compound concentration 10.0 uM
# [32] = target: Ephrin type-B receptor 1 (Homo sapiens) (UniProt P54762)
# [33] = test system: Proto-oncogene tyrosine-protein kinase receptor Ret (Homo sapiens), P07949 [V804M]
# [34] = target: Mitogen-activated protein kinase kinase kinase kinase 4 (Homo sapiens) (UniProt O95819)
# [35] = target: Mitogen-activated protein kinase kinase kinase 6 (Homo sapiens) (UniProt O95382)
# [36] = target: Casein kinase I isoform alpha (Homo sapiens) (UniProt P48729)
# [37] = target: Serine/threonine-protein kinase Nek1 (Homo sapiens) (UniProt Q96PY6)
# [38] = test system: Tyrosine-protein kinase ABL1 (Homo sapiens), P00519 [Q252H]
# [39] = target: 5-hydroxytryptamine receptor 2B (Homo sapiens, UniProt P41595); settings: Compound concentration 10.0 uM
# [40] = target: Serine/threonine-protein kinase SBK1 (Homo sapiens) (UniProt Q52WX2)
# [41] = target: Ephrin type-A receptor 6 (Homo sapiens) (UniProt Q9UF33)
# [42] = target: STE20/SPS1-related proline-alanine-rich protein kinase (Homo sapiens) (UniProt Q9UEW8)
# [43] = target: Homeodomain-interacting protein kinase 1 (Homo sapiens) (UniProt Q86Z02)
# [44] = target: Serine/threonine-protein kinase ULK3 (Homo sapiens) (UniProt Q6PHR2)
# [45] = target: Mitogen-activated protein kinase 9 (Homo sapiens) (UniProt P45984)
# [46] = Compound concentration 1000.0 nM
# [47] = Compound concentration 100.0 nM
# Sequence of Serine/threonine-protein kinase Nek1 (Homo sapiens) (Q96PY6 whole entry): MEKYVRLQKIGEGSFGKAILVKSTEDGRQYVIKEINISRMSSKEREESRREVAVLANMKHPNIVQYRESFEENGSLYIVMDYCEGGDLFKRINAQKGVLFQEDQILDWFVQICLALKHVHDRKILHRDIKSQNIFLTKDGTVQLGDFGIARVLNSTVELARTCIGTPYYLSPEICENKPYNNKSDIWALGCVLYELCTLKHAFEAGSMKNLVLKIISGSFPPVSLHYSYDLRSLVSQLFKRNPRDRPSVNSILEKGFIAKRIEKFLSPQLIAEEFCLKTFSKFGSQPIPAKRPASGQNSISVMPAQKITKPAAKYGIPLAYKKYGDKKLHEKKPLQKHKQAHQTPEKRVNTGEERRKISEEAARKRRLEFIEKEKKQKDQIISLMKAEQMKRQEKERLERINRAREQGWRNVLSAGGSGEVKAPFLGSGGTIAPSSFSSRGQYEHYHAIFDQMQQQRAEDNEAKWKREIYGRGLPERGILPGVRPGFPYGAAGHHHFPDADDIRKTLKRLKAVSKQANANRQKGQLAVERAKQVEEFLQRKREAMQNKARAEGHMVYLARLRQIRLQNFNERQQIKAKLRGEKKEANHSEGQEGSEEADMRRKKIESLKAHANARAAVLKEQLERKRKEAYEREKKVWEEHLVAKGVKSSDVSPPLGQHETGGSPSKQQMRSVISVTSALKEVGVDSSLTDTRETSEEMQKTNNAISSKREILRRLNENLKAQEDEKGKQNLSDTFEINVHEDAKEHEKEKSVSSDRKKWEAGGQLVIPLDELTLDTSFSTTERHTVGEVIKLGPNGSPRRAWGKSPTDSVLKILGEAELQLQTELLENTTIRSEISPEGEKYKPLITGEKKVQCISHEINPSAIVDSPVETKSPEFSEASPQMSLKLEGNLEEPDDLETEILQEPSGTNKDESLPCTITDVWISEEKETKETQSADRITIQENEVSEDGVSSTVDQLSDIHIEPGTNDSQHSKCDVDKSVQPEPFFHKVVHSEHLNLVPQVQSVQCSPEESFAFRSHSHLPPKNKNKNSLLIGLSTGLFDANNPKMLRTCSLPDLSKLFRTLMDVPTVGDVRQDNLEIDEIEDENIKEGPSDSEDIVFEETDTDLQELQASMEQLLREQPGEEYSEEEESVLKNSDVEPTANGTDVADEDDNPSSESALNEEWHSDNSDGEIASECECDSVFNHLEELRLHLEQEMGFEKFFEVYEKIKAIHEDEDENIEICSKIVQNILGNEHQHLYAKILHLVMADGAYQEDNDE
# Sequence of Serine/threonine-protein kinase 33 (Homo sapiens) (Q9BYT3 whole entry, looked up): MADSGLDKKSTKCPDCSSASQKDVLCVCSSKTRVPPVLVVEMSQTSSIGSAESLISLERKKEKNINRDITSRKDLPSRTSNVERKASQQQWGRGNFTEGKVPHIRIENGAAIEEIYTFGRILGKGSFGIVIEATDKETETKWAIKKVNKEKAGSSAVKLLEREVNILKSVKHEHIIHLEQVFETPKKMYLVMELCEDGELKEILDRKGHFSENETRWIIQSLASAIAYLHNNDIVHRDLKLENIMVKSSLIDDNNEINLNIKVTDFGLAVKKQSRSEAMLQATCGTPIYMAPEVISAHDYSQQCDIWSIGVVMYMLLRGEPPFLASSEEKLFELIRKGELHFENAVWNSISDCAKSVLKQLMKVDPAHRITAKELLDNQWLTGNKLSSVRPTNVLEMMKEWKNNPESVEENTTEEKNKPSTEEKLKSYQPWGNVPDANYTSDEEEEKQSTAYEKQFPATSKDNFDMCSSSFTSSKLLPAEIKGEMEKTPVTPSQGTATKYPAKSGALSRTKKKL
# Sequence of Fibroblast growth factor receptor 2 (Homo sapiens) (P21802 22-821 limits assumed): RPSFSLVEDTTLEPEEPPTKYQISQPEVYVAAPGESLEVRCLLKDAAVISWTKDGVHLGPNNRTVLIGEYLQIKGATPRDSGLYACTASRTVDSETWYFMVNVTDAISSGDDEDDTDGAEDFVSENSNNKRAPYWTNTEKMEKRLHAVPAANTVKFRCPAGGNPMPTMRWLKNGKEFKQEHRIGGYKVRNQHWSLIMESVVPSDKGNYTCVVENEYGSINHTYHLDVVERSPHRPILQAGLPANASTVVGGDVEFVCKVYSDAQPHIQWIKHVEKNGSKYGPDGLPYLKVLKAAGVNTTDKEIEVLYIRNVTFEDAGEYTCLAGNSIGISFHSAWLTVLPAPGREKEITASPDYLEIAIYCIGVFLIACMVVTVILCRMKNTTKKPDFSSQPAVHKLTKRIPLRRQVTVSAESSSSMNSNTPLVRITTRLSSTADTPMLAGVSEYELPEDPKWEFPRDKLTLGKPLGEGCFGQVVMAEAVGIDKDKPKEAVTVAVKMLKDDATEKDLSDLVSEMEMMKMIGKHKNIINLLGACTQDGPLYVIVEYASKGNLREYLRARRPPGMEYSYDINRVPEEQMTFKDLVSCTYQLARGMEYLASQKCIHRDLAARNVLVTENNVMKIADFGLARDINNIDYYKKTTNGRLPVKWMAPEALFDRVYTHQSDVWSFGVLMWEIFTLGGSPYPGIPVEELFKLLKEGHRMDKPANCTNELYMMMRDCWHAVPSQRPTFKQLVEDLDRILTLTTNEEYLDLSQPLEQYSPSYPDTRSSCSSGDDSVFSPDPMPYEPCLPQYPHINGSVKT
# Sequence of Tyrosine-protein kinase Fyn (Homo sapiens) (P06241 2-537 limits assumed): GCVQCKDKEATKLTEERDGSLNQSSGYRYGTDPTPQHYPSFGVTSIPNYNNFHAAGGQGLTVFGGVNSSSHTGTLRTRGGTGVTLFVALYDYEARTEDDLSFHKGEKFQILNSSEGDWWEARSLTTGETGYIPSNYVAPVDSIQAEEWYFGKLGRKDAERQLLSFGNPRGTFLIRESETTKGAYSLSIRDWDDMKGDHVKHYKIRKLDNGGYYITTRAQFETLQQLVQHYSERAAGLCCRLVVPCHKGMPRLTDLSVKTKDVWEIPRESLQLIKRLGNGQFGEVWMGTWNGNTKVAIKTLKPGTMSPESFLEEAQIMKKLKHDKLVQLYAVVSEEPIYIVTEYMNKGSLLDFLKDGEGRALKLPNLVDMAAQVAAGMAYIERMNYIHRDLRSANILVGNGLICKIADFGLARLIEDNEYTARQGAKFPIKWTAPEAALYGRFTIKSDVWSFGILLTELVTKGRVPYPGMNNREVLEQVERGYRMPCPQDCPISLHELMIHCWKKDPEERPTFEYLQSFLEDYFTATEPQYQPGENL
# Sequence of Myosin light chain kinase family member 4 (Homo sapiens) (Q86YV6 whole entry): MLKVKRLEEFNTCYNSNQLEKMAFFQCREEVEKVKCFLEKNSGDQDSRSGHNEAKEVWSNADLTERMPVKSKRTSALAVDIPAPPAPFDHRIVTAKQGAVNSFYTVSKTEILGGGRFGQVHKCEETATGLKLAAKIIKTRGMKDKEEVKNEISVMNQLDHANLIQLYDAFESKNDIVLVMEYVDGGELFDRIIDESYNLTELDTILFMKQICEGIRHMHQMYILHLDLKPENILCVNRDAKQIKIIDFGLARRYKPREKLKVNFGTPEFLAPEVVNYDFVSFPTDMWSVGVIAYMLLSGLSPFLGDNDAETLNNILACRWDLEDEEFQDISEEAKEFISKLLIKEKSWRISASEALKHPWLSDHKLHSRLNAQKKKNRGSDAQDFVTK
# Sequence of 5-hydroxytryptamine receptor 2A (Homo sapiens) (P28223 whole entry): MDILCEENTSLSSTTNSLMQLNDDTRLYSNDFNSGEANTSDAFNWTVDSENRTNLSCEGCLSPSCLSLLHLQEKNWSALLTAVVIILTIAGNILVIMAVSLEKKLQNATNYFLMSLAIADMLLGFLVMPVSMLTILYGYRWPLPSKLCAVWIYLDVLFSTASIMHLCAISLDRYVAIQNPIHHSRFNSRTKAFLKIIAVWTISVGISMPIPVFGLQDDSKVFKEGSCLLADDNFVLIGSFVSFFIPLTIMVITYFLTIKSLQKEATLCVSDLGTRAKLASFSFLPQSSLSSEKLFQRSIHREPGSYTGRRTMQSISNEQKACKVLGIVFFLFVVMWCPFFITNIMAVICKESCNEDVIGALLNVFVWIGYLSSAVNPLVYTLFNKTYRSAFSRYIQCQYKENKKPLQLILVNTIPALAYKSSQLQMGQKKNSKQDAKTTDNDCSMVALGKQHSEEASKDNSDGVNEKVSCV
# Sequence of Phosphatidylinositol 4,5-bisphosphate 3-kinase catalytic subunit alpha isoform (Homo sapiens) (P42336 whole entry, canonical isoform): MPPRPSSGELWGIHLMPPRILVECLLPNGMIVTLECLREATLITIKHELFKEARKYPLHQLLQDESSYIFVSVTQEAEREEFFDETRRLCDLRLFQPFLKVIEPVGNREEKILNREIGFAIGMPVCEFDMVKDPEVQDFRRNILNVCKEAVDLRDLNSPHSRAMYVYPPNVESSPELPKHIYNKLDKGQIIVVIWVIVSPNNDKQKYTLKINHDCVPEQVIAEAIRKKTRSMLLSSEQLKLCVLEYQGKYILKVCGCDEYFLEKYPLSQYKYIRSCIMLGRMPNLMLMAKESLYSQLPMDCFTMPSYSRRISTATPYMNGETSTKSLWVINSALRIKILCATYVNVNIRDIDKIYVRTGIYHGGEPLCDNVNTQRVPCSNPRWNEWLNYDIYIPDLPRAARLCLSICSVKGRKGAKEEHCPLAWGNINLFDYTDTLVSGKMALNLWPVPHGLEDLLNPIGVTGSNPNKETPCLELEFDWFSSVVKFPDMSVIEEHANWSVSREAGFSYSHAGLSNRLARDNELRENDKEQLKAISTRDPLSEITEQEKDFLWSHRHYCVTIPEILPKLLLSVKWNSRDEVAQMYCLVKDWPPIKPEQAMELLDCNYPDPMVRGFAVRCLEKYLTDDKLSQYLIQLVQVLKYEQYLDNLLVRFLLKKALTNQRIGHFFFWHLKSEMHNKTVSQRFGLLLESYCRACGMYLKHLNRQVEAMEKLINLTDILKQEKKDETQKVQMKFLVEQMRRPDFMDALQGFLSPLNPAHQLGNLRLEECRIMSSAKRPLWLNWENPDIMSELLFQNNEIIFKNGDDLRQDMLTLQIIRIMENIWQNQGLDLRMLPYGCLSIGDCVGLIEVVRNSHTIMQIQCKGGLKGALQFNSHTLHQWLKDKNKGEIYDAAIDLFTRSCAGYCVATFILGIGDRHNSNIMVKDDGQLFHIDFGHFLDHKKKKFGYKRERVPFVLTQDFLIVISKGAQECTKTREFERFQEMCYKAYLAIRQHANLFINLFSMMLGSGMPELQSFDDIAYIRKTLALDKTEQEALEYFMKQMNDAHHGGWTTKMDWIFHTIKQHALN
smiles,measurement,setting,value
C[C@H](NC(=O)Nc1cc2[nH]ncc2c(CO)n1)c1ccccn1 [ERKi-NC],residual activity,[1]; [46],100%
same,residual activity,[2]; [46],100%
same,residual activity,[3]; [46],100%
same,residual activity,[4]; [46],86.3%
same,residual activity,[5]; [46],100%
same,residual activity,[6]; [46],100%
same,inhibition,[7],7.64%
same,residual activity,[8]; [46],62%
same,residual activity,[9]; [46],95.3%
same,residual activity,[10]; [46],100%
same,residual activity,[11]; [46],100%
same,residual activity,[12]; [46],81.5%
same,residual activity,[13]; [46],34.6%
same,inhibition,[14],14.2%
same,residual activity,[15]; [46],100%
same,residual activity,[16]; [46],100%
same,residual activity,[17]; [46],100%
same,residual activity,[18]; [46],77.2%
same,residual activity,[19]; [46],100%
same,residual activity,[20]; [46],100%
same,residual activity,[21]; [46],100%
same,residual activity,[22]; [46],100%
same,inhibition,[23],18.7%
same,residual activity,[24]; [46],84.5%
same,residual activity,[25]; [46],70.9%
same,residual activity,[26]; [46],100%
same,residual activity,[27]; [46],100%
same,residual activity,[28]; [46],100%
same,residual activity,[29]; [46],97.6%
same,residual activity,[30]; [46],100%
same,inhibition,[31],-1.84%
same,residual activity,[32]; [46],100%
same,residual activity,[33]; [46],81.7%
same,residual activity,[34]; [46],100%
same,residual activity,[35]; [46],67.4%
same,residual activity,[36]; [46],56.5%
same,residual activity,[37]; [46],100%
same,residual activity,[38]; [46],100%
same,inhibition,[39],90.9%
same,residual activity,[40]; [46],100%
same,residual activity,[41]; [46],89%
same,residual activity,[42]; [46],80.9%
same,residual activity,[43]; [46],48.9%
same,residual activity,[44]; [46],98.9%
same,residual activity,[45]; [46],100%
C[C@@H](NC(=O)Nc1cc2[nH]ncc2c(CO)n1)c1ccccc1 [ERKi],residual activity,[1]; [47],81.9%
same,residual activity,[2]; [47],100%
same,residual activity,[3]; [47],77.5%
same,residual activity,[4]; [47],100%
same,residual activity,[5]; [47],100%
same,residual activity,[6]; [47],59.3%
same,inhibition,[7],7.44%
same,residual activity,[8]; [47],100%
same,residual activity,[9]; [47],94.1%
same,residual activity,[10]; [47],86%
same,residual activity,[11]; [47],100%
same,residual activity,[12]; [47],94.8%
same,residual activity,[13]; [47],75.7%
same,inhibition,[14],-3.22%
same,residual activity,[15]; [47],94.6%
same,residual activity,[16]; [47],83.1%
same,residual activity,[17]; [47],84%
same,residual activity,[18]; [47],100%
same,residual activity,[19]; [47],94.9%
same,residual activity,[20]; [47],75.5%
same,residual activity,[21]; [47],79.6%
same,residual activity,[22]; [47],84.5%
same,inhibition,[23],-0.569%
same,residual activity,[24]; [47],97.1%
same,residual activity,[25]; [47],95.2%
same,residual activity,[26]; [47],91.6%
same,residual activity,[27]; [47],100%
same,residual activity,[28]; [47],95.7%
same,residual activity,[29]; [47],79.8%
same,residual activity,[30]; [47],99.5%
same,inhibition,[31],-5.17%
same,residual activity,[32]; [47],91.1%
same,residual activity,[33]; [47],100%
same,residual activity,[34]; [47],88.5%
same,residual activity,[35]; [47],99.3%
same,residual activity,[36]; [47],84.6%
same,residual activity,[37]; [47],74.1%
same,residual activity,[38]; [47],67.8%
same,inhibition,[39],13.1%
same,residual activity,[40]; [47],53.3%
same,residual activity,[41]; [47],100%
same,residual activity,[42]; [47],100%
same,residual activity,[43]; [47],83.1%
same,residual activity,[44]; [47],68.1%
same,residual activity,[45]; [47],79.5%
